“And” between values parts separate entries of the source, which are not always exact repeats. Equal values may be shown once.
Columns and labels:
[1] = test system: mitochondria isolated from rat brain; assay: EPR analysis of ROS production upon mitochondria respiration (Mito-TEMPO); assay type: biochemical; conditions: succinate without rotenone, 37 °C, 8 min preincubation
Description: Investigation of the redox status in mitochondria was performed using the Mito-TEMPO paramagnetic spin probe, which is a mitochondria-penetrating nitroxide radical that allows evaluation of the level of ROS (mainly superoxides) produced during respiration. The same protocol as described in the previous subsection was followed with the addition of Mito-TEMPO (0.1 mM) during the preincubation with BrP, NF, or NF-Br. In this case succinate was used as a respiratory substrate in the absence of rotenone in order to allow the formation of ROS via the electron reverse from complex II to complex I. At predetermined time intervals, 20 μL of each sample was loaded into glass capillaries and flame-sealed. To guarantee thermal stability, the sealed capillaries were subsequently placed inside a standard 4 mm quartz EPR-sample tube that had been lightly lubricated with silicone oil. As described in a previous subsection, a 9 GHz Bruker Elexsys E500 spectrometer was used to record the EPR spectra. During acquisition, the sample temperature was maintained at 37 °C by directing thermostated nitrogen gas through a quartz dewar. Mito-TEMPO EPR signals were analyzed by double integration using the Bruker software package.

U-87 MG cells (2D) [2] = assay: 2D U-87 cell viability assay (PrestoBlue); assay type: cell-based, human
Description: Cells were seeded in 48-well plates at approximately 3 × 10^4 cells per well in DMEM culture medium supplemented with 10% FBS. U-87 MG cell lines from human brain were initially cultured in 25 cm^2 flasks, using DMEM supplemented with FBS 10%, P/S 2%, and L/GLUT 2 mM, in a humidified incubator (37 °C/5% CO2). After 24 h, once cells adhered, they were treated in parallel with NF-BrP (BrP, 5 μM), NF-BrP-TMZ (BrP and TMZ, 5 μM), and BrP at concentrations of 30, 50, 100, and 150 μM, for 24, 48, and 72 h. Untreated cells served as the controls. All experiments were performed under standard cell culture conditions (95% relative humidity, 5% CO2, 37 °C). At the end of each incubation time, cell viability was assessed using the PrestoBlue assay (ThermoFisher Scientific), according to the manufacturer’s protocol. Cells were incubated with the reagent for 1 h, and absorbance was obtained at 570 nm with 600 nm as the reference wavelength with a BioTek Synergy HT microplate reader. Results are expressed as the percentage of viable cells relative to the untreated controls.

[3] = test system: mitochondria isolated from rat brain; assay: Mitochondrial respiration (Clark-type electrode); assay type: biochemical; conditions: 5 μM, 8 min preincubation, 37 °C, ADP 300 μM
Description: Male Wistar rats (275–300 g) were obtained from Envigo RMS Srl (Udine, Italy). Animals were housed in a temperature-controlled environment (22 °C) under a 12:12 h light–dark cycle, with food and water available ad libitum. All procedures were conducted in strict accordance with European guidelines for the care and use of laboratory animals. Every attempt was made to reduce the suffering and discomfort experienced by the animals. Experimental protocols were approved by the Committee on the Ethics of Animal Experiments of the University of Naples Federico II (Italy) and the Italian Minister of Health (protocol number 776/2021-Pr). Rats were anesthetized by ip injection of tiopental (40 mg/100 body weight) and euthanized by decapitation. Brains were immediately excised, weighed, and processed for mitochondrial isolation, following the method described by Sumbalova et al. Briefly, brain tissues were immersed in ice-cold isolation buffer (330 mM sucrose, 10 mM Tris-HCl, 1 mM EDTA, and 2.5 g/L fatty acid-free BSA, pH 7.4) and homogenized using a Potter-Elvehjem homogenizer. […] Mitochondrial respiration rate was measured polarographically using a Clark-type electrode (Clark-type electrode, Oxygraph system, Hansatech Instruments Ltd., UK). […]

U-87 MG cells (2D) [4] = conditions: highest tested concentration 250 μM, 72 h; ref previous work; cited from earlier work
Description: Combining drugs with different mechanisms of action targeting distinct cellular pathways can help overcome resistance and produce a synergistic effect, thereby enhancing the overall anticancer efficacy. The combined cytotoxic effect of the nanofiber NF-TMZ-BrP, cofunctionalized with BrP and TMZ (both at 5 μM), was evaluated in 2D and 3D-U87 cells at 24, 48, and 72 h. […] After 72 h, the cytotoxic effect became more pronounced, with appro ...

| SMILES | effect on mitochondrial ROS production (slope of mito-TEMPO decay) [1] | reduction of U-87 cell viability by free BrP at 150 μM (U-87 MG cells (2D) [2]; free drug 150 μM, prolonged exposure) | concentrations at which a decrease in U-87 cell viability is observed (U-87 MG cells (2D) [2]; free drug, 24, 48 and 72 h) | inhibition of ADP-stimulated respiration, pyruvate + malate [3] | inhibition of ADP-stimulated respiration, succinate + rotenone [3] | reduction in cell viability by free TMZ (U-87 MG cells (2D) [4]) [%] |
| --- | --- | --- | --- | --- | --- | --- |
| O=C(O)C(=O)CBr [BrP, 3-bromopyruvic acid] | reduces the slope in a dose-dependent manner | no more than 20% | 50 to 150 µM and > 50 µM | about 50% | about 50% | – |
| Cn1nnc2c(C(N)=O)ncn2c1=O [TMZ, temozolomide] | – | – | – | – | – | 40 |

From paper PMC12598698, “Synergistic Cancer Metabolic Therapy via Co-Delivery of 3‑Bromopyruvate and Temozolomide with a Supramolecular Shuttle” (ACS Applied Materials & Interfaces, 2025)
